Among the data in ChEMBL document CHEMBL1148417, “Thiol-based SAHA analogues as potent histone deacetylase inhibitors” (Bioorg Med Chem Lett, 2004) are IC50 values, retold here.

SMILES strings stand for the structures.

In this assay the target is Histone deacetylase. The class given is protein assay.

Description: In vitro inhibitory activity against human histone deacetylase (HDAC) using HeLa nuclear extract

In turn, `CSCCCCCCC(=O)Nc1ccccc1` registered an IC50 of over 100 µM.

The molecule `O=C(CCCCCCNCCS)Nc1ccccc1.O=C(O)C(F)(F)F` registered an IC50 of over 100 µM.

In general, IC50 refers to the concentration that gives 50% inhibition.
